The source made the active and inactive calls. The calls are words filed in the database; no cut-off is given here. Where a SMILES comes first, the peptide text is derived from it. [ ]: non-standard residue; d: D form. The star is where a group is joined. Phe(4-SO3H) = N[C@@H](Cc1ccc(S(=O)(=O)O)cc1)C(=O)O; sY = N[C@@H](Cc1ccc(OS(=O)(=O)O)cc1)C(=O)O; Nle = CCCC[C@H](N)C(=O)O; Orn = NCCC[C@H](N)C(=O)O; Cbz = O=C(OCc1ccccc1)*; Boc = CC(C)(C)OC(=O)*
How the values were obtained:
Cavia porcellus [1] = organism: Cavia porcellus; assay: Antagonist activity expressed as binding constant, evaluated from the potency to stimulate Amylase release from guinea pig pancreatic acini;Not significant
[2] = target: T1, Cholecystokinin receptor type A (Cavia porcellus, UniProt Q63931); assay: Apparent affinity to inhibit binding of [3H]pCCK-8 to Cholecystokinin type A receptor of guinea pig pancreatic membranes
T1 sequence (Q63931 whole entry): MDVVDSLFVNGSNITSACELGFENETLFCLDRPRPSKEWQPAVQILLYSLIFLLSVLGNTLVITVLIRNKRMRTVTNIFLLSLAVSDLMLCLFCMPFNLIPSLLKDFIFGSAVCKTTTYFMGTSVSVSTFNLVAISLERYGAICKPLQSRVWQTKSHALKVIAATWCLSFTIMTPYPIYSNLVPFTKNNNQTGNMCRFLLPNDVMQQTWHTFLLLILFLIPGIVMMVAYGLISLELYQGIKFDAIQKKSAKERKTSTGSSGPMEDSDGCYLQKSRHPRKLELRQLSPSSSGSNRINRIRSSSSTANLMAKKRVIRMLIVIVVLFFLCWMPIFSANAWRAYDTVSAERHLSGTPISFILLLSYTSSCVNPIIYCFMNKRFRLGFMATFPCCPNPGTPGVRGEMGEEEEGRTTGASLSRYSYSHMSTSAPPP

[3] = Antagonist activity expressed as pA2, evaluated from the potency to stimulate amylase release from guinea pig pancreatic acini; type: functional, Cavia porcellus
[4] = Agonist activity expressed as effective concentration that causes 50% stimulation of amylase release from guinea pig pancreatic acini.; ND means no significant activity at 10e-4 M
[5] = (§1) Antagonist activity expressed as binding constant, evaluated from the potency to stimulate Amylase release from guinea pig pancreatic acini; set-up: species or system Cavia porcellus
Cavia porcellus [6] = organism: Cavia porcellus; assay: as §1
[7] = Agonist activity expressed as effective concentration that causes 50% stimulation of amylase release from guinea pig pancreatic acini;Not significant; type: functional, Cavia porcellus
[8] = Antagonist activity expressed as binding constant, evaluated from the potency to stimulate Amylase release from guinea pig pancreatic acini;Not significant at 10e-4 M; settings: Cavia porcellus
[9] = Agonist activity expressed as effective concentration that causes 50% stimulation of amylase release from guinea pig pancreatic acini.; ND means no significant activity at 10e-4 M; type: functional, Cavia porcellus
[10] = Agonist activity expressed as effective concentration that causes 50% stimulation of Amylase release from guinea pig pancreatic acini.; ND means no significant activity at 10e-4 M; type: functional, Cavia porcellus
[11] = Antagonist activity expressed as pA2, evaluated from the potency to stimulate Amylase release from guinea pig pancreatic acini; type: functional, Cavia porcellus
[12] = Agonist activity expressed as effective concentration that causes 50% stimulation of amylase release from guinea pig pancreatic acini; type: functional, Cavia porcellus

Row | Compound | Ki [2] | pA2 [3] | EC50 [4] | Kb (Cavia porcellus [6]) | further results
1 | CC(C)(C)OC(=O)NCCC[C@H](NC(=O)[C@H](Cc1c[nH]c2ccccc12)NC(=O)OC(C)(C)C)C(=O)N[C@@H](CC(=O)O)C(N)=O (Boc-Trp-[Orn](Boc)-Asp-NH2) | 29 µM | 4.62 | Not Active |  | Kb (Cavia porcellus [1]): 0.23 µM
2 | CC(C)(C)OC(=O)N[C@@H](Cc1c[nH]c2ccccc12)C(=O)N[C@@H](CCCNC(=O)OCc1ccccc1)C(=O)N[C@@H](CC(=O)O)C(N)=O (Boc-Trp-[Orn](Cbz)-Asp-NH2) | 0.2 µM | 6.63 | Not Active |  | Kb (Cavia porcellus [1]): 0.23 µM
3 | CC(C)(C)OC(=O)N[C@@H](Cc1c[nH]c2ccccc12)C(=O)N[C@@H](CCCN)C(=O)N[C@@H](CC(=O)O)C(N)=O (Boc-Trp-[Orn]-Asp-NH2) | 1000 µM |  |  |  | 
4 | CC(C)(C)OC(=O)NCCC[C@H](NC(=O)[C@H](Cc1c[nH]c2ccccc12)NC(=O)OC(C)(C)C)C(=O)N[C@@H](CC(=O)O)C(=O)N[C@@H](Cc1ccccc1)C(N)=O (Boc-W[Orn](Boc)DF-NH2) | 5.2 µM | 4.58 |  |  | Kb (Cavia porcellus [1]): inactive; EC50 [5]: 13.6 µM
5 | CC(C)(C)OC(=O)N[C@@H](Cc1c[nH]c2ccccc12)C(=O)N[C@@H](CCCNC(=O)OCc1ccccc1)C(=O)N[C@@H](CC(=O)O)C(=O)N[C@@H](Cc1ccccc1)C(N)=O (Boc-W[Orn](Cbz)DF-NH2) | 0.34 µM | 6.25 | Not Active | 0.57 µM | 
6 | CC(C)(C)OC(=O)N[C@@H](Cc1c[nH]c2ccccc12)C(=O)N[C@@H](CCCN)C(=O)N[C@@H](CC(=O)O)C(=O)N[C@@H](Cc1ccccc1)C(N)=O (Boc-W[Orn]DF-NH2) | 14 µM |  |  |  | EC50 [7]: 13.8 µM; Kb [8]: inactive
7 | CCCC[C@H](NC(=O)[C@H](Cc1ccc(S(=O)(=O)O)cc1)NC(=O)OC(C)(C)C)C(=O)NCC(=O)N[C@@H](Cc1c[nH]c2ccccc12)C(=O)N[C@@H](CCCNC(=O)OC(C)(C)C)C(=O)N[C@@H](CC(=O)O)C(=O)N[C@@H](Cc1ccccc1)C(N)=O (Boc-[Phe(4-SO3H)][Nle]GW[Orn](Boc)DF-NH2) | 0.66 µM | 5.94 |  | 1.1 µM | EC50 [9]: Not Active
8 | CCCC[C@H](NC(=O)[C@H](Cc1ccc(S(=O)(=O)O)cc1)NC(=O)OC(C)(C)C)C(=O)NCC(=O)N[C@@H](Cc1c[nH]c2ccccc12)C(=O)N[C@@H](CCCNC(=O)OCc1ccccc1)C(=O)N[C@@H](CC(=O)O)C(N)=O (Boc-[Phe(4-SO3H)][Nle]GW[Orn](Cbz)D-NH2) |  |  | Not Active | 0.22 µM | 
9 | CCCC[C@H](NC(=O)[C@H](Cc1ccc(S(=O)(=O)O)cc1)NC(=O)OC(C)(C)C)C(=O)NCC(=O)N[C@@H](Cc1c[nH]c2ccccc12)C(=O)N[C@@H](CCCNC(=O)OCc1ccccc1)C(=O)N[C@@H](CC(=O)O)C(=O)N[C@@H](Cc1ccccc1)C(N)=O (Boc-[Phe(4-SO3H)][Nle]GW[Orn](Cbz)DF-NH2) |  |  |  | 0.49 µM | 
10 | CCCC[C@H](NC(=O)[C@H](Cc1ccc(OS(=O)(=O)O)cc1)NC(=O)OC(C)(C)C)C(=O)NCC(=O)N[C@@H](Cc1c[nH]c2ccccc12)C(=O)N[C@@H](CCCNC(=O)OCc1ccccc1)C(=O)N[C@@H](CC(=O)O)C(N)=O (Boc-[sY][Nle]GW[Orn](Cbz)D-NH2) | 0.23 µM | 6.64 |  |  | 
11 | CCCC[C@H](NC(=O)[C@H](Cc1ccc(OS(=O)(=O)O)cc1)NC(=O)OC(C)(C)C)C(=O)NCC(=O)N[C@@H](Cc1c[nH]c2ccccc12)C(=O)N[C@@H](CCCNC(=O)OCc1ccccc1)C(=O)N[C@@H](CC(=O)O)C(=O)N[C@@H](Cc1ccccc1)C(N)=O (stereo in doubt; 1) | 0.31 µM |  |  |  | EC50 [10]: Not Active; pA2 [11]: 6.32
12 | CCCC[C@H](NC(=O)[C@H](Cc1ccc(OS(=O)(=O)O)cc1)NC(=O)OC(C)(C)C)C(=O)NCC(=O)N[C@@H](Cc1c[nH]c2ccccc12)C(=O)N[C@@H](CCCNC(=O)OCc1ccccc1)C(=O)N[C@@H](CC(=O)O)C(=O)N[C@@H](Cc1ccccc1)C(N)=O (stereo in doubt; 2) | 0.34 µM |  |  |  | EC50 [12]: 0.022 µM

— ChEMBL document CHEMBL1125030, “Boc-Trp-Orn(Z)-Asp-NH2 and derivatives: a new family of CCK antagonists” (J Med Chem, 1990)
